The term IC50 denotes the point on the concentration scale where inhibition reaches its midpoint. What is called Ki is a dissociation constant, usually derived from enzyme kinetics or from competition with a known ligand. A lower Ki goes with a stronger hold on the target.

“And” between values parts separate entries of the source, which are not always exact repeats. Equal entries are not always repeated. “Also recorded” adds a separate entry of the source. Where two headings read alike, the source gives them in different places.

These results are taken from publication PMC3547856, “Naphthoquinone Derivatives Exert Their Antitrypanosomal Activity via a Multi-Target Mechanism” (PLoS Neglected Tropical Diseases, 2013).

Data set [1] has as its system T. b. brucei bloodstream-form mitochondria. As to the kind of experiment: ROS (H2O2) production by mitochondrial fraction, H2DCFDA fluorescence. The format is cell-based. As to conditions: 10 µM B6, in the presence of G3P. The method, then:
Bloodstream- and procyclic-form T. b. brucei cells (strain Lister 427, cell line 449) were cultured up to the exponential growth phase and homogenates were obtained by grinding the washed parasite pellets with silicon-carbide abrasive grain (mesh 300) in disruption buffer containing 250 mM sucrose, 25 mM Tris-HCl and l mM EDTA, pH 7.8 (STE buffer). Differential centrifugation was performed as follows: the suspension was taken up in another 3 ml STE buffer and centrifuged at 30 g for 3 min. The supernatant, representing the cell homogenate, was centrifuged at 1,500 g for 10 min giving the nuclear fraction. The post-nuclear supernatant was then centrifuged at 5,000 g for 10 min giving the large-granular (mitochondria-enriched) fraction as pellet. This fraction was resuspended in 300 µl STE buffer.
The method used to measure H2O2 production in T. b. brucei mitochondria is based on the fluorogenic probe 2′,7′-dichlorodihydrofluorescein diacetate (H2DCFDA) which emits an intense green fluorescence only after deacetylation and subsequent oxidation. ROS production by the mitochondrial fraction of bloodstream form T. b. brucei was measured in a 96-well microtiter plate using a fluorescence plate reader (Victor Wallace multiplate reader).
In each well, 0.25 mg mitochondrial protein/ml and 5 µM H2DCFDA to a final volume of 0.2 ml with 10 mM Tris-HCl, 50 mM KCl, 1 mM EDTA, pH 7.5 were present. […]

Data set [2] deals with Trypanosoma brucei rhodesiense. Also noted: method as in PMID 18353643. As to conditions: cited from earlier work.
The test system of data set [3] is bloodstream form T. b. brucei G6PDH RNAi cell line. As to the kind of experiment: Growth inhibition of bloodstream-form T. b. brucei G6PDH RNAi cell line. It counts as cell-based. From the text: To provide support for the notion that the trypanocidal effect of B6 could in part be attributed to the generation of toxic ROS, we made use of an available bloodstream form T. b. brucei cell line in which glucose-6-phosphate dehydrogenase (G6PDH) expression can be knocked down by RNA interference (RNAi). Previously, it has been shown that this cell line grows equally well as wild-type cells under normal (reducing) growth conditions, but it is highly susceptible to ROS when the G6PDH expression is partially knocked down, an effect attributed to decreased NADPH production.

For data set [4], the system named is permeabilized T. b. brucei bloodstream-form cells. As to the kind of experiment: Oxygen consumption in permeabilized bloodstream-form cells (Clark electrode). The format is cell-based. The method, then: Oxygen consumption was monitored in a thermostated vessel at 37°C with a Clark electrode (oxygraph). Measurements in permeabilized bloodstream-form T. brucei were done in buffer 1 (96.9 mM NaCl, 3.1 mM KCl, 5 mM MgCl2, 2 mM Na2HPO4, 90 mM Tris at pH 7.5). Batches of 2×10^7 cells were pelleted, washed in buffer 1 and incubated for 5′ on ice in 1 ml of buffer 1 containing 1 ng digitonin to permeabilize the cells. Subsequently the permeabilized cells were pelleted and washed twice with buffer 1 without digitonin after which the pellet was taken up in 1 ml buffer 1 and transferred to the oxygraph. Substrates and inhibitors were added as described in the text.
B6 and SHAM were dissolved in DMSO. The DMSO concentration used in these oxygen consumption measurements was less than 0.7%.
To determine whether B6 could exert its trypanocidal action also through this mechanism, respiration was monitored in permeabilized T. b. brucei bloodstream-form cells in the presence of B6 and/or SHAM (Fig. 7). SHAM is an inhibitor of TAO, which acts as the final electron acceptor in bloodstream form T. b. brucei.

For a further data set, the target named is TbGAPDH (Trypanosoma brucei brucei, UniProt P22512). As to the kind of experiment: T. b. brucei glyceraldehyde-3-phosphate dehydrogenase enzyme-coupled spectrophotometric assay. The format is biochemical. Conditions: for IC50: 10 min pre-incubation. The method, then: The kinetics of the TbGAPDH reaction was monitored using a continuous enzyme-coupled spectrophotometric assay, as previously described. In brief, TbGAPDH activity was measured following the NADH oxidation at 340 nm, in a coupled assay with 3-phosphoglycerate kinase and using a Jasco V-550 spectrophotometer.
Chain of TbGAPDH (P22512 whole entry): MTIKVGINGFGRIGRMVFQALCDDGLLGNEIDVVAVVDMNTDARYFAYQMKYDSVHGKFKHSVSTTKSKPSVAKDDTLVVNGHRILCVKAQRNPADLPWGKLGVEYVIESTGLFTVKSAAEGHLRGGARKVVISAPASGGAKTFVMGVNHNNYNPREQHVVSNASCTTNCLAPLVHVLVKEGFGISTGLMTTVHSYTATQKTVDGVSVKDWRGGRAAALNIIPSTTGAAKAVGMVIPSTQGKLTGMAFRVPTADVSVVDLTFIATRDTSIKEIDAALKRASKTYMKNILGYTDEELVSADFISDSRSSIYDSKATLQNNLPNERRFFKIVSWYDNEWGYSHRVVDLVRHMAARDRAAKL
All measurements were performed at 25°C in 0.01 M triethanolamine, pH 7.6, 1.7 mM ATP, 1 mM EDTA, 100 mM KCl, 5 mM MgSO4, 1.7 mM NaHCO3, 25 µg 3-phosphoglycerate kinase. The IC50 values were determined in a final volume of 1 ml in the presence of 120 ng TbGAPDH and 5.6 mM 3-phosphoglycerate (3-PGA), while varying the B6 concentration after a pre-incubation of enzyme plus inhibitor for 10 min. The reaction was started by the addition of 0.2 mM NADH. Each point of the curve was measured in triplicates and the value for IC50 was estimated from graphically plotted dose-response curves.
The type of inhibition was determined with respect to NADH and 3-PGA in consideration of Michaelis-Menten steady-state conditions. To investigate the inhibition mechanism with respect to NADH, TbGAPDH was incubated for 10 min at room temperature with different inhibitor concentrations (0–15 µM) in a total volume of 1 ml. The reaction was initiated by the addition of 5.6 mM 3-PGA and NADH (ranging from 5 µM to 200 µM). The inhibition mechanism with respect to 3-PGA was determined in a similar way. To this end, TbGAPDH was incubated with varying inhibitor concentrations (10 nM–100 µM). The reaction was initiated by the addition of 0.2 mM NADH and 3-PGA (ranging from 50 µM to 5.6 mM). The α and Ki values were obtained from Dixon and secondary plots. The reported values represent the mean of two independent experiments.

For another data set, the system named is mammalian cell lines. The arrangement: method as in PMID 18353643. As to conditions: ratio of ED50 values on mammalian cell lines and trypanosomes; cited from earlier work.
Data set [5] has as its system bloodstream-form T. b. brucei strain Lister 427. As to the kind of experiment: Growth inhibition (LILIT) of bloodstream-form T. b. brucei. The format is cell-based. As to conditions: cultured bloodstream form. The protocol:
(§1) We used bloodstream and procyclic forms of T. b. brucei strain Lister 427, cell lines 449 [34], constitutively expressing the E. coli tetracycline (Tet) repressor gene via the chromosomally integrated plasmid pHD449 that also confers phleomycin resistance. Bloodstream forms were cultured in HMI-9 medium containing 10% heat-inactivated foetal calf serum (Invitrogen) and 0.18 µg/ml phleomycin (Cayla) at 37°C under water-saturated air with 5% CO2. Procyclic trypanosomes were grown in SDM79 medium supplemented with 15% foetal calf serum and 0.5 µg/ml phleomycin at 28°C under water-saturated air with 5% CO2. The glucose-depleted SDM-80 medium, first employed by Lamour et al., was supplemented with 5 µg/ml hemin, 9% (v/v) dialyzed “glucose free” heat-inactivated foetal calf serum (Sigma) and 1% (v/v) of normal heat-inactivated foetal calf serum (Invitrogen).
(§2) The anti-trypanosomal activity tests were also performed on T. b. brucei according to the “Long Incubation Low Inoculation Test” (LILIT), [39] using cultured bloodstream and procyclic forms of T. b. brucei strain Lister 427, cell line 449 [34].

The next data set concerns the target TbGK (Trypanosoma brucei brucei, UniProt Q9NJP9). As to the kind of experiment: T. b. brucei glycerol kinase enzyme-coupled spectrophotometric assay. As to conditions: mean of three independent experiments; 25°C. It counts as biochemical. The method, then:
The expression construct has been obtained by subcloning the corresponding GK gene (isolated from T. b. brucei strain Lister 427) from the formerly designed pET15-TbGK plasmid into vector pET28 to create the final expression plasmid pET28-TbGK (unpublished data). TbGK was then expressed in E. coli BL21(DE3)-CodonPlus-RIL grown in 1 liter LB medium supplemented with kanamycin (50 µg/ml) and chloramphenicol (34 µg/ml) for 16 h at 37°C. Expression was induced by adding 1 mM isopropyl β-d-thiogalactanopyranoside (IPTG), and growth was continued for another 2 h at 37°C. […] TbGK was eluted using a 10 column volumes linear imidazole-gradient using buffer A and buffer B. Eluted fractions were analyzed by SDS-PAGE. […] After overnight incubation at 16°C, the digested protein was concentrated and desalted using a Superdex 75 column equilibrated with buffer A. Protein concentration was determined at 280 nm (extinction coefficient = 81650 M^−1 cm^−1). […]
The TbGK activity was measured using a modified version of a continuous enzyme-coupled spectrophotometric assay developed previously. […] The IC50 value of B6 was calculated as the mean of three independent experiments.

Data set [6] has as its system procyclic T. b. brucei strain Lister 427. As to the kind of experiment: Growth inhibition (LILIT) of procyclic T. b. brucei with or without glucose. It counts as cell-based. The protocol:
as §1, §2
Tests of growth inhibition by B6 were performed on procyclic trypanosomes cultured in medium containing glucose (SDM79 medium), resulting in glycolytic activity for the cells' main energy supply, or without glucose (SDM80 medium), where the proline is the main substrate for free energy production through mitochondrial metabolism. Under these latter conditions, the glycosomal GAPDH would still be needed for gluconeogenesis, to synthesize glucose 6-phosphate for production of glucoconjugates, but the gluconeogenic flux is assumed to be much lower than the glycolytic flux when glucose is present.

Data set [7] relates to Trypanosoma brucei rhodesiense. As to the kind of experiment: T. b. rhodesiense in vitro growth inhibition. It counts as cell-based. Conditions: for IC50: Trypanosoma brucei, RHODESIENSE / STIB900, Figure 1, bloodstream form STIB 900 strain, read-out: IC50 against Trypanosoma brucei rhodesiense parasites. The method, then:
The synthesized compounds were then tested against T. b. rhodesiense parasites as previously reported, and their activities are shown in Figure 1 along with that of B6.
T. b. rhodesiense in vitro growth inhibition activity of 1–3 (Fig. 1) was assessed using bloodstream form of STIB 900 strain, following the procedure reported in Orhan et al..

Another data set deals with Trypanosoma. The arrangement: method as in earlier work. As to conditions: cited from earlier work.
Details of data set [8]: method as in earlier work. As to conditions: cited from earlier work.

Chain of TbGK (Q9NJP9 whole entry): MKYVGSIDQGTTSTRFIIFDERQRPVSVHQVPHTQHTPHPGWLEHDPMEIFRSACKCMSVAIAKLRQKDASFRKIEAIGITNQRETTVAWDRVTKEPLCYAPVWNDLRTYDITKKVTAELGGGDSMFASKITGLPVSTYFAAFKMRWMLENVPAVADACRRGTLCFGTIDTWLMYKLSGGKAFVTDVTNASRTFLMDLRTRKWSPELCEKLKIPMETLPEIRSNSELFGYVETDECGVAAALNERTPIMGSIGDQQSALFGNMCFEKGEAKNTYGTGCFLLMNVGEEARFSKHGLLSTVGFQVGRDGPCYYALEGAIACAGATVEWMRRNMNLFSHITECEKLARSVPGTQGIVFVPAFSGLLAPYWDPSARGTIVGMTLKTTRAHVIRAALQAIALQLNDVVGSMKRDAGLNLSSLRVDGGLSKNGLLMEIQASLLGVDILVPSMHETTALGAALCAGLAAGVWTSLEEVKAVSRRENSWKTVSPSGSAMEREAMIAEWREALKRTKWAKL

Regarding `O=C1C=C(Oc2ccccc2)C(=O)c2ccccc21` [B6, 2-phenoxy-1,4-naphthoquinone], the ROS production entry in [1] is listed as “able to generate radicals in a significant way; also recorded: considerable production of ROS”. For the same molecule, the IC50 in data set [2] (Figure 1, lead B6, read-out: IC50 against Trypanosoma brucei rhodesiense parasites) was 0.08 µM; at TbGAPDH (then 1:10 dilution of enzyme and inhibitor, read-out: IC50 TbGAPDH after dilution 1:10), 9.98 ± 3.53 µM; on TbGAPDH (standard conditions, without dilution, read-out: IC50 TbGAPDH), 7.25 ± 1.62 µM; at TbGK, 0.9 ± 0.3 µM. Besides, in data set [2] (in vitro cultured parasites), the “ED50 against Trypanosoma brucei rhodesiense” value was 0.08 µM. In data set [3] (G6PDH expression knocked down by RNAi), the “ED50 induced RNAi cell line” value is 0.25 µM. Moreover, in data set [3] (non-induced), the “ED50 non-induced RNAi cell line” value was found to be 10.8 µM. Besides, the oxygen consumption rate result in data set [4] (cells respiring on 10 mM G3P, absence and presence of SHAM) is “the oxygen consumption rate increased”. The Ki is 5 µM and 4.99 µM at TbGAPDH (variation of 3-PGA); 3.6 µM on TbGAPDH (variation of NADH). The α value on TbGAPDH (with respect to 3-PGA) was determined as 0.4; at TbGAPDH (with respect to NADH), 0.6. For the same molecule, the “type of inhibition of TbGAPDH” value at TbGAPDH (with respect to NADH and 3-PGA, double reciprocal plots) is reported as “non-competitive inhibitor (mixed type)”. Besides, in the data set with mammalian cell lines, the selectivity index is 74. In addition, the “ED50 bloodstream-form T. b. brucei strain Lister 427” value in data set [5] is 24.8 µM. The “fold more susceptible, procyclic versus bloodstream-form” value in [6] (glucose-grown cells, strain Lister 427) amounted to 100 fold. For the same molecule, the ED50 procyclic trypanosomes in data set [6] (medium containing glucose (SDM79)) was 0.25 ± 0.09 µM and 0.25 µM; in [6] (without glucose (SDM80), proline metabolism) it was 0.67 ± 0.16 µM.
Consider `Nc1ccc(OC2=CC(=O)c3ccccc3C2=O)cc1` [Compound 1, 2-(4-amino-phenoxy)-[1,4]naphthoquinone], for which, in [7], the IC50 was determined as 0.57 µM. In [7] (anti-T. b. rhodesiense activity relative to B6), the “times less active than B6” value was found to be 7 times.
For `O=C1C(Oc2ccccc2)=CC(=O)c2c(O)cccc21` [Compound 2, 5-hydroxy-2-phenoxy-[1,4]naphthoquinone], in data set [7], the IC50 is 4.4 µM.
Still for that read-out and setting: in the case of `O=C1C=C(Oc2ccccc2)C(=O)c2c(O)cccc21` [Compound 3, 8-hydroxy-2-phenoxy-[1,4]naphthoquinone] it was 0.85 µM.
With `O=C(NO)c1ccccc1O` [SHAM, salicylhydroxamic acid, reference compound], in data set [4] (2 mM SHAM, 10 mM G3P as electron donor), the respiration result is listed as “inhibited respiration completely”.
As for `CC(C)=CCC1=C(O)C(=O)c2ccccc2C1=O` [lapachol], the anti-trypanosomal profile result in the data set with Trypanosoma was “marked anti-trypanosomal profile”. In addition, the “toxic effects in humans” value in [8] was “no serious toxic effects in humans”.
